From article PMC9600929, “Structural and Mechanistic Bases of Viral Resistance to HIV-1 Capsid Inhibitor Lenacapavir” (mBio, 2022)
Several values for one entry are separate records, joined by “and”; a condition that tells them apart may be missing. Equal values may be shown once.

Columns and labels:
[1] = target: cross-linked HIV-1 CA(WT) hexamer (Human immunodeficiency virus type 1 group M subtype B, UniProt P12493, A146C/E177C/M317A/W316A); experiment: SPR binding to cross-linked CA(WT) hexamers
[2] = target: cross-linked HIV-1 CA(Q67H) hexamer (Human immunodeficiency virus type 1 group M subtype B, UniProt P12493, A146C/E177C/M317A/Q199H/W316A); experiment: SPR binding to cross-linked CA(Q67H) hexamers
[3] = target: cross-linked HIV-1 CA(N74D) hexamer (Human immunodeficiency virus type 1 group M subtype B, UniProt P12493, A146C/E177C/M317A/N206D/W316A); experiment: SPR binding to cross-linked CA(N74D) hexamers
[4] = target: T1, cross-linked HIV-1 CA(Q67H/N74D) hexamer (Human immunodeficiency virus type 1 group M subtype B, UniProt P12493, A146C/E177C/M317A/N206D/Q199H/W316A); experiment: biochemical; type: binding
T1 construct: Expression, purification and assembly of recombinant CA; made in house; host or cells: E. coli BL21-DE3 (pET3a)

HIV-1NL4-3 WT CA = experiment: microbe, parasite or virus in culture; type: cell-based; details: Human immunodeficiency virus 1, MT4
HIV-1NL4-3 Q67H CA = experiment: microbe, parasite or virus in culture; type: cell-based; details: for EC50: Human immunodeficiency virus 1, MT4
HIV-1NL4-3 N74D CA = experiment: microbe, parasite or virus in culture; type: cell-based; details: for EC50: Human immunodeficiency virus 1, MT4
HIV-1NL4-3 Q67H/N74D CA = experiment: microbe, parasite or virus in culture; type: cell-based; details: for EC50: Human immunodeficiency virus 1, MT4
HIV-1NL4-3 Q67H/K70R CA = experiment: microbe, parasite or virus in culture; type: cell-based; details: for EC50: Human immunodeficiency virus 1, MT4, HIV-1NL4-3 Q67H/K70R CA, MT-4 cells, mean ± SD
HIV-1(M66I CA) = type: cell-based; details: early stage antiviral activity
[5] = system: HIV-1 reverse transcription; design: method as in PMID 32612233, PMID 31501601, PMID 33060363; details: during virus ingress; cited from earlier work
HIV-1 nuclear import = system: HIV-1 nuclear import; design: method as in PMID 32612233, PMID 31501601, PMID 33060363; details: during virus ingress; cited from earlier work
HIV-1 integration = system: HIV-1 integration; design: method as in PMID 32612233, PMID 31501601, PMID 33060363; details: during virus ingress; cited from earlier work
in vitro = type: cell-based; details: human; from cytotoxicity (Fig. S7) and antiviral activity (Fig. 5C); read-out: selectivity index
Experimental: (§1) MT4 cells in complete RPMI were mixed with the indicated concentrations of compounds on 96-well plates (1 × 10^4 cells per well). Cells were kept in a humidified 37°C incubator for 2 days. The effect of test compounds on cell viability was measured using CellTiter-Glo (Promega, G7570).

MT4 cells = experiment: in vitro; type: cell-based; details: MT4 cells, 2 days, CellTiter-Glo
Experimental: as §1

[6] = WT compared to WT CA (reference)

## CC(C)(C#Cc1ccc(-c2ccc(Cl)c3c(NS(C)(=O)=O)nn(CC(F)(F)F)c23)c([C@H](Cc2cc(F)cc(F)c2)NC(=O)Cn2nc(C(F)(F)F)c3c2C(F)(F)[C@@H]2C[C@H]32)n1)S(C)(=O)=O [LEN, Lenacapavir]
[1]; CA (WT), mean ± SD
  association rate constant (kon): 7.0 ± 1.6 x 10^4 M^-1s^-1
  dissociation rate constant (koff): 1.5 ± 0.2 x 10^-5 s^-1
[1]; CA (WT), mean ± SD, three independent experiments, read-out: equilibrium dissociation constant (KD)
  Kd: 230 ± 80 pM
[1]; [6]
  KD fold change: 1 fold
  koff fold change: 1 fold
  kon fold change: 1 fold
[2]; CA (Q67H), mean ± SD
  association rate constant (kon): 6.4 ± 1.1 x 10^4 M^-1s^-1
  dissociation rate constant (koff): 7.3 ± 1.0 x 10^-5 s^-1
[2]; CA (Q67H), mean ± SD, read-out: equilibrium dissociation constant (KD)
  Kd: 1200 pM
[2]; Q67H CA compared to WT CA
  koff fold change: 5 fold
  kon fold change: 0.9 fold
[3]; CA (N74D), mean ± SD
  association rate constant (kon): 3.0 ± 0.3 x 10^4 M^-1s^-1
  dissociation rate constant (koff): 1.4 ± 0.02 x 10^-4 s^-1
[3]; CA (N74D), mean ± SD, read-out: equilibrium dissociation constant (KD)
  Kd: 4600 pM
[3]; N74D CA compared to WT CA
  koff fold change: ~ 10 fold and 9 fold
  kon fold change: 0.4 fold
[3]; N74D CA versus WT CA, stated as fold adverse effect
  adverse effect on association rate constant: ~ 2 fold
[4]; CA (Q67H/N74D), mean ± SD
  association rate constant (kon): 3.0 ± 0.9 x 10^4 M^-1s^-1
  dissociation rate constant (koff): 1.1 ± 0.5 x 10^-3 s^-1
[4]; CA (Q67H/N74D), mean ± SD, read-out: equilibrium dissociation constant (KD)
  Kd: 34100 pM
[4]; Q67H/N74D CA compared to WT CA
  koff fold change: 73 fold
  kon fold change: 0.4 fold
HIV-1NL4-3 WT CA
  EC50: 91 ± 10 pM
HIV-1NL4-3 Q67H CA
  EC50: 611 ± 10 pM
HIV-1NL4-3 Q67H CA; Q67H CA variant versus WT
  decreased potency of the inhibitor with respect to the CA variant: 7 fold
HIV-1NL4-3 N74D CA
  EC50: 902 ± 27 pM
HIV-1NL4-3 N74D CA; {}
  decreased virus susceptibility to the inhibitor: ~ 10 fold
HIV-1NL4-3 Q67H/N74D CA
  EC50: 24200 pM
HIV-1NL4-3 Q67H/K70R CA
  EC50: 1500 ± 23 pM
HIV-1(M66I CA)
  susceptibility of the virus to the inhibitor: fully resistant
[5]
  EC50: 5000 to 50000 pM
HIV-1 nuclear import
  EC50: 500 to 5000 pM
HIV-1 integration
  EC50: 50 to 500 pM

## CC(C)(C#Cc1ccc(-c2ccc(Cl)c3c(NS(C)(=O)=O)nn(CC(F)(F)F)c23)c([C@H](Cc2cc(F)cc(F)c2)NC(=O)Cn2nc(C(F)(F)F)c3c2CCCC3)n1)S(C)(=O)=O [KFA-012]
[1]; CA(WT) hexamer, SPR
  improved binding affinity compared with parental LEN: ~ 2 fold
[4]; CA(Q67H/N74D) hexamer, SPR
  improved binding affinity compared with parental LEN: ~ 2 fold
HIV-1NL4-3 WT CA
  EC50: 71 ± 6 pM
HIV-1NL4-3 Q67H CA; HIV-1NL4-3 Q67H CA
  Fold increase of KFA-012 potency versus LEN potency: 1.8 fold
HIV-1NL4-3 Q67H CA
  EC50: 335 ± 10 pM
HIV-1NL4-3 N74D CA
  EC50: 633 ± 14 pM
HIV-1NL4-3 Q67H/N74D CA; HIV-1NL4-3 Q67H/N74D CA
  Fold increase of KFA-012 potency versus LEN potency: 2.6 fold
HIV-1NL4-3 Q67H/N74D CA
  EC50: 9180 pM
HIV-1NL4-3 Q67H/K70R CA; HIV-1NL4-3 Q67H/K70R CA
  Fold increase of KFA-012 potency versus LEN potency: ~ 1.7 fold
HIV-1NL4-3 Q67H/K70R CA
  EC50: 883 ± 170 pM
HIV-1(M66I CA)
  susceptibility of the virus to the inhibitor: fully resistant
In vitro
  selectivity ratio at 2 days: > 10000
MT4 cells
  compound concentrations with adverse effects on cell viability: > 3000 nM
  concentration up to which no cytotoxicity was observed: up to 781 nM
